Assay [1] in a line: Inhibition of trypsin assessed as residual proteolytic activity at 0.5 mM.
The nature of assay [2]: Inhibition of elastase assessed as residual proteolytic activity at 0.5 mM.
Assay [3] addresses Plasminogen (Homo sapiens) (UniProt P00747). The experiment in a line: Inhibition of plasmin assessed as residual proteolytic activity at 0.5 mM.
Assay [4] is described as follows: Inhibition of kallikrein assessed as residual proteolytic activity at 0.5 mM.
Assay [5] is described as follows: Inhibition of chymotrypsin assessed as residual proteolytic activity at 0.5 mM.
Assay [6] deals with Prothrombin (Homo sapiens) (UniProt P00734). The experiment in a line: Inhibition of thrombin assessed as residual proteolytic activity at 0.5 mM.
Assay [7] in a line: Inhibition of subtilisin assessed as residual proteolytic activity at 0.5 mM.
The test system of assay [8] is Escherichia coli. Briefly: Inhibition of Escherichia coli degP assessed as residual proteolytic activity at 0.5 mM.
Assay [9] deals with Escherichia coli. Briefly: Inhibition of Escherichia coli degP assessed as specific activity at 0.5 mM. Further details: scale not given: the % may be the effect or the level left.
Assay [10] addresses Prothrombin (Homo sapiens) (UniProt P00734). The experiment in a line: Inhibition of thrombin assessed as specific activity at 0.5 mM. Details: scale not given: the % may be the effect or the level left.
The target of assay [11] is Plasminogen (Homo sapiens) (UniProt P00747). The experiment in a line: Inhibition of plasmin assessed as specific activity at 0.5 mM. Details: scale not given: the % may be the effect or the level left.
A short description of assay [12]: Inhibition of trypsin assessed as specific activity at 0.5 mM. Further details: scale not given: the % may be the effect or the level left.
The nature of assay [13]: Inhibition of chymotrypsin assessed as specific activity at 0.5 mM. Details: scale not given: the % may be the effect or the level left.
The nature of assay [14]: Inhibition of kallikrein assessed as specific activity at 0.5 mM. Further details: scale not given: the % may be the effect or the level left.
Assay [15] can be described thus: Inhibition of elastase assessed as specific activity at 0.5 mM. Details: scale not given: the % may be the effect or the level left.
The nature of assay [16]: Inhibition of subtilisin assessed as specific activity at 0.5 mM. Details: scale not given: the % may be the effect or the level left.

Peptide text beside a SMILES is read from it. A value given as a limit tells only on which side of the number the result lay.

Plasminogen (Homo sapiens), sequence (P00747 97-580 limits assumed): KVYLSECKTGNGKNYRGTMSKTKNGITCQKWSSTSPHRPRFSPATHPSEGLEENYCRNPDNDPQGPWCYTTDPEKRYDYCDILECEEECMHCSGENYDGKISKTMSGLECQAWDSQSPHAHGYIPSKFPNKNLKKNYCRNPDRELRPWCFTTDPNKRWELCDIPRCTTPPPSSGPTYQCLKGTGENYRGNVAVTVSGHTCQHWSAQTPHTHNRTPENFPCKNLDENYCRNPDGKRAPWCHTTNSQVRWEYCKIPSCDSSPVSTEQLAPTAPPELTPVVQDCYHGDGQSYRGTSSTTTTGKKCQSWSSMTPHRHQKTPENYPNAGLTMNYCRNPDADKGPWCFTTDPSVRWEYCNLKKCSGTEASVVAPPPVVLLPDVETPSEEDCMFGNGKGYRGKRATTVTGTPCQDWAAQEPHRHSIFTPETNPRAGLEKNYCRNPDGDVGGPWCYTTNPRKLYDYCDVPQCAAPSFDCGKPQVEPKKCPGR
Plasminogen (Homo sapiens), sequence (P00747 581-810 limits assumed): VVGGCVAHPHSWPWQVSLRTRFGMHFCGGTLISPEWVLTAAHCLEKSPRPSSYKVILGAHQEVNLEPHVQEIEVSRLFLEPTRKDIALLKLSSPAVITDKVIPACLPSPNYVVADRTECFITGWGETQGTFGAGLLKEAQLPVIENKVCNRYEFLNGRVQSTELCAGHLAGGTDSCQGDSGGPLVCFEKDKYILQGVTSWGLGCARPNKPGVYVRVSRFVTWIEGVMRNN

For the compound `CC[C@H](C)[C@H](N)C(=O)N[C@@H](Cc1c[nH]c2ccccc12)C(=O)N[C@@H](CC(N)=O)C(=O)N[C@H](C(=O)N[C@@H](CC(C)C)C(=O)N[C@@H](CC(N)=O)C(=O)N[C@@H](CO)C(=O)NCC(=O)N[C@@H](CCCNC(=N)N)C(=O)N[C@H](C(=O)N[C@H](C(=O)N1CCC[C@H]1C(=O)NCC(=O)N[C@H](C(=O)NCC(=O)N[C@@H](Cc1cnc[nH]1)C(=O)N[C@@H](C)C(=O)CCl)[C@@H](C)O)C(C)C)C(C)C)[C@@H](C)O` (HELM PEPTIDE1{I.W.N.T.L.N.S.G.R.V.V.P.G.T.G.H.A.[ClC[*:1]]}$$$$V2.0), the Activity in assay [1] is 410%; in assay [2], 60%; in assay [3] it was 74%; in assay [4], 111%; in assay [5] it was 78%; in assay [6] it was 98%. The figures for the Activity (in [7]; with Escherichia coli [8]) were 15% and 101%, respectively.
Take `CSCC[C@H](NC(=O)[C@H](CCSC)NC(=O)[C@@H]1CCCN1C(=O)[C@H](CC(C)C)NC(=O)[C@@H](NC(=O)[C@H](CC(N)=O)NC(=O)[C@H](Cc1ccccc1)NC(=O)[C@@H](NC(=O)[C@@H]1CCCN1)C(C)C)[C@@H](C)O)C(=O)NCC(=O)N[C@@H](CCCCN)C(=O)N[C@@H](C)C(=O)N[C@@H](CO)C(=O)N1CCC[C@H]1C(=O)N[C@H](C(=O)CCl)C(C)C` (HELM PEPTIDE1{P.V.F.N.T.L.P.M.M.G.K.A.S.P.V.[ClC[*:1]]}$$$$V2.0): the Activity in assay [1] is 591%; in assay [2], less than 1%; in assay [3] it was 62%; in assay [4], 122%; in [5], 48%; in assay [6] it was 101%. The Activity is 143% in assay [7] and 63% with Escherichia coli [8].
With `CC(C)[C@H](NC(=O)[C@H](CCCNC(=N)N)NC(=O)CNC(=O)[C@@H](N)CO)C(=O)N[C@H](C(=O)N1CCC[C@H]1C(=O)NCC(=O)N[C@@H](Cc1ccc(O)cc1)C(=O)NCC(=O)N[C@@H](Cc1cnc[nH]1)C(=O)N[C@@H](C)C(=O)Nc1ccc([N+](=O)[O-])cc1)C(C)C` (HELM PEPTIDE1{S.G.R.V.V.P.G.Y.G.H.A.[O=[N+]([O-])c1ccc(N[*:1])cc1]}$$$$V2.0), the Activity (in the assay with Escherichia coli [9]; in [10]; in assay [11]; in [12]; in [13]; in assay [14]) was less than 1% throughout. Further, the Activity in [15] was 56%; in assay [16], 2970%.
`CSCC[C@H](NC(=O)[C@H](CCSC)NC(=O)[C@@H]1CCCN1C(=O)[C@H](CC(C)C)NC(=O)[C@@H](NC(=O)[C@H](CC(N)=O)NC(=O)[C@H](Cc1ccccc1)NC(=O)[C@@H](N)C(C)C)[C@@H](C)O)C(=O)NCC(=O)N[C@@H](CCCCN)C(=O)N[C@@H](C)C(=O)N[C@@H](CO)C(=O)N1CCC[C@H]1C(=O)N[C@H](C(=O)Nc1ccc([N+](=O)[O-])cc1)C(C)C` (HELM PEPTIDE1{V.F.N.T.L.P.M.M.G.K.A.S.P.V.[O=[N+]([O-])c1ccc(N[*:1])cc1]}$$$$V2.0): the Activity in the assay with Escherichia coli [9] is 32%; in [10] it was less than 1%; in assay [11], less than 1%; in [12] it was less than 1%; in [13], 8%; in assay [14], less than 1%. In addition, the results for the Activity in assay [15] and in assay [16] were 89% and less than 1%, respectively.
`CC(C)C[C@H](NC(=O)CNC(=O)[C@H](C)NC(=O)CNC(=O)[C@@H]1CCCN1C(=O)[C@@H](NC(=O)[C@H](CO)NC(=O)[C@H](C)NC(=O)CNC(=O)[C@@H](N)CCCCN)C(C)C)C(=O)N[C@H](C(=O)Nc1ccc([N+](=O)[O-])cc1)C(C)C` (HELM PEPTIDE1{K.G.A.S.V.P.G.A.G.L.V.[O=[N+]([O-])c1ccc(N[*:1])cc1]}$$$$V2.0): the Activity (with Escherichia coli [9]; in assay [10]; in [11]; in assay [12]; in assay [13]; in [14]) was less than 1% throughout. Moreover, the results for the Activity in [15] and in assay [16] were 6% and less than 1%, respectively.
With `CSCC[C@H](NC(=O)[C@@H]1CCCN1C(=O)[C@@H](N)CO)C(=O)N[C@@H](Cc1ccccc1)C(=O)N[C@@H](CCCCN)C(=O)NCC(=O)N[C@H](C(=O)Nc1ccc([N+](=O)[O-])cc1)C(C)C` (HELM PEPTIDE1{S.P.M.F.K.G.V.[O=[N+]([O-])c1ccc(N[*:1])cc1]}$$$$V2.0), the Activity is 18% in the assay on Escherichia coli [9]; less than 1% in assay [10]; less than 1% in assay [11]; less than 1% in assay [12]; less than 1% in assay [13]; less than 1% in assay [14]. Further, the Activity in assay [15] worked out at 7%; in assay [16], 3%.
For the compound `CC(C)[C@H](NC(=O)[C@H](CCC(=O)O)NC(=O)[C@H](Cc1ccc(O)cc1)NC(=O)CNC(=O)[C@H](CO)NC(=O)[C@H](CC(=O)O)NC(=O)[C@H](Cc1cnc[nH]1)NC(=O)[C@H](CCCNC(=N)N)NC(=O)[C@H](Cc1ccccc1)NC(=O)[C@H](CCC(=O)O)NC(=O)[C@H](C)NC(=O)[C@H](CC(=O)O)NC(=O)[C@@H](N)CO)C(=O)Nc1ccc([N+](=O)[O-])cc1`, the Activity (in the assay on Escherichia coli [9]; in [10]; in assay [11]; in [12]; in assay [13]; in assay [14]) was less than 1% each time. Moreover, the Activity in assay [15] was found to be 8%; in assay [16] it was 2%.
Regarding `CC(C)[C@H](NC(=O)CNC(=O)CNC(=O)[C@H](CC(=O)O)NC(=O)[C@@H](NC(=O)[C@@H](N)CO)[C@@H](C)O)C(=O)Nc1ccc([N+](=O)[O-])cc1` (HELM PEPTIDE1{S.T.D.G.G.V.[O=[N+]([O-])c1ccc(N[*:1])cc1]}$$$$V2.0), the Activity in the assay with Escherichia coli [9] was less than 1%; in assay [10], less than 1%; in assay [11], 2%; in assay [12] it was less than 1%; in assay [13], less than 1%; in [14] it was less than 1%. The Activity is 5% in assay [15] and less than 1% in assay [16].
Regarding `CSCC[C@H](NC(=O)[C@H](CCSC)NC(=O)[C@@H]1CCCN1C(=O)[C@H](CC(C)C)NC(=O)[C@@H](NC(=O)[C@H](CC(N)=O)NC(=O)[C@H](Cc1ccccc1)NC(=O)[C@@H](NC(=O)[C@@H]1CCCN1)C(C)C)[C@H](C)O)C(=O)NCC(=O)N[C@@H](CCCCN)C(=O)N[C@@H](C)C(=O)N[C@@H](CO)C(=O)N1CCC[C@H]1C(=O)N[C@H](C(=O)Nc1ccc([N+](=O)[O-])cc1)C(C)C`, the Activity in the assay on Escherichia coli [9] is 18%; in assay [10], less than 1%; in [11], less than 1%; in assay [12], 1%; in assay [13], 3%; in assay [14], less than 1%. Further, the values for the Activity in assay [15] and in assay [16] were 69% and less than 1%, respectively.
As for `CSCC[C@H](NC(=O)[C@H](CCSC)NC(=O)[C@@H]1CCCN1)C(=O)NCC(=O)N[C@@H](CCCCN)C(=O)N[C@@H](C)C(=O)N[C@@H](CO)C(=O)N1CCC[C@H]1C(=O)N[C@H](C(=O)Nc1ccc([N+](=O)[O-])cc1)C(C)C` (HELM PEPTIDE1{P.M.M.G.K.A.S.P.V.[O=[N+]([O-])c1ccc(N[*:1])cc1]}$$$$V2.0), the Activity in the assay on Escherichia coli [9] is 1%; in assay [10], less than 1%; in [11], 4%; in assay [12], less than 1%; in assay [13] it was less than 1%; in [14], less than 1%. Besides, the Activity in assay [15] was 96%; in assay [16], less than 1%.
With `CC(C)C[C@H](NC(=O)CN)C(=O)N[C@@H](C)C(=O)N[C@H](C(=O)NCC(=O)N[C@@H](CC(N)=O)C(=O)N[C@H](C(=O)N[C@@H](CO)C(=O)N[C@H](C(=O)N[C@@H](C)C(=O)N[C@@H](CCC(=O)O)C(=O)N[C@@H](CC(C)C)C(=O)N[C@@H](CCC(N)=O)C(=O)N[C@@H](CC(=O)O)C(=O)N[C@@H](C)C(=O)N[C@H](C(=O)N1CCC[C@H]1C(=O)N[C@@H](C)C(=O)Nc1ccc([N+](=O)[O-])cc1)[C@H](C)O)[C@@H](C)O)C(C)C)[C@@H](C)O`, the Activity is less than 1% in the assay with Escherichia coli [9]; less than 1% in [10]; less than 1% in assay [11]; less than 1% in assay [12]; 26% in assay [13]; less than 1% in [14]. In addition, the Activity is 24% in assay [15] and 1520% in [16].
Consider `N=C(N)NCCC[C@H](NC(=O)c1ccccc1)C(=O)Nc1ccc([N+](=O)[O-])cc1`, for which the Activity is less than 1% in the assay on Escherichia coli [9]; 3% in assay [10]; less than 1% in assay [11]; 758% in assay [12]; less than 1% in [13]; 24% in [14]. Besides, the Activity in assay [15] and in assay [16] was less than 1% throughout.
For the compound `CC(C)[C@H](NC(=O)[C@@H]1CCCN1C(=O)[C@@H](NC(=O)[C@H](C)NC(=O)CNC(=O)[C@H](CO)NC(=O)CNC(=O)[C@H](CO)NC(=O)[C@H](CC(N)=O)NC(=O)[C@H](CCCCN)NC(=O)CNC(=O)[C@@H](N)CCCCN)[C@@H](C)O)C(=O)Nc1ccc([N+](=O)[O-])cc1` (HELM PEPTIDE1{K.G.K.N.S.G.S.G.A.T.P.V.[O=[N+]([O-])c1ccc(N[*:1])cc1]}$$$$V2.0), the Activity in the assay on Escherichia coli [9] was less than 1%; in assay [10], less than 1%; in assay [11], less than 1%; in assay [12], less than 1%; in [13], 5%; in assay [14], less than 1%. For the same compound, the Activity stood at 74% in [15] and 34% in [16].

The record behind these values is ChEMBL document CHEMBL1153316, “Selectivity profiling of DegP substrates and inhibitors” (Bioorg Med Chem, 2009).
